Test results as given in ChEMBL document CHEMBL5291721, “A preclinical secondary pharmacology resource illuminates target-adverse drug reaction associations of marketed drugs” (Nat Commun, 2023).

target: T1, Glucocorticoid receptor (Homo sapiens, UniProt P04150)
T1 sequence (P04150 whole entry): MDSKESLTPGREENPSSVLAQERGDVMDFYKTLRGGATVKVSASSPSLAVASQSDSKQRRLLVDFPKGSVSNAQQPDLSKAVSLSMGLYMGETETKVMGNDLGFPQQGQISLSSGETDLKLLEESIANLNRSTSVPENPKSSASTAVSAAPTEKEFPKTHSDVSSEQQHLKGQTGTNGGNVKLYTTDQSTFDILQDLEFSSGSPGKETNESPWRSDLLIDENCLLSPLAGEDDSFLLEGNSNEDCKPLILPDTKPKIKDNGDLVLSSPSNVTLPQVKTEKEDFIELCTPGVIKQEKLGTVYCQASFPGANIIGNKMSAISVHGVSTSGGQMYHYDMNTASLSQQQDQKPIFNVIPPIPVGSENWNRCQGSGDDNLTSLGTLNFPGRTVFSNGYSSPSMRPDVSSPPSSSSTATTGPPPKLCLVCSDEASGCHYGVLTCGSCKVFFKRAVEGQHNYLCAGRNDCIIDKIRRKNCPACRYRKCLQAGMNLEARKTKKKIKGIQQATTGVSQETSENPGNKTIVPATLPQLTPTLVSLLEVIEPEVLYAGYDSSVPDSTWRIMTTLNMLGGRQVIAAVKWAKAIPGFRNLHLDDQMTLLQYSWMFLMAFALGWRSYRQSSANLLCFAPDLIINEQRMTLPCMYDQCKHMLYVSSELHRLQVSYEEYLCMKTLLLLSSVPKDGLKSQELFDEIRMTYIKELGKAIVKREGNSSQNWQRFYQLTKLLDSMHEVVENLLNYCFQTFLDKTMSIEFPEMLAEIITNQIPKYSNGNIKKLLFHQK
Note: assay procedure not described here.

Compound	AC50 [µM]
CCC[C@H](NC(=O)[C@@H]1[C@H]2CCC[C@H]2CN1C(=O)[C@@H](NC(=O)[C@@H](NC(=O)c1cnccn1)C1CCCCC1)C(C)(C)C)C(=O)C(=O)NC1CC1	> 30
CC(=O)N[C@@H](CS)C(=O)O [ACETYLCYSTEINE]	> 30
C=CCNc1nc(NCC=C)nc(N2CCN(C(c3ccc(F)cc3)c3ccc(F)cc3)CC2)n1 [ALMITRINE]	> 30
CC(C)COCC(CN(Cc1ccccc1)c1ccccc1)N1CCCC1 (stereo not given) [BEPRIDIL]	> 30
CCCCC(=O)O[C@]1(C(=O)CO)[C@@H](C)C[C@H]2[C@@H]3CCC4=CC(=O)C=C[C@]4(C)[C@@]3(F)[C@@H](O)C[C@@]21C [BETAMETHASONE VALERATE]	0.004
C/N=C(\NC)NCc1ccccc1 [BETHANIDINE]	> 30
CCC(C)C1(CC)C(=O)NC(=O)NC1=O (stereo not given) [BUTABARBITAL]	> 30
COCC1=C(C(=O)O)N2C(=O)[C@@H](NC(=O)/C(=N\OC)c3csc(N)n3)[C@H]2SC1 [CEFPODOXIME]	> 30
CC1OC2(CS1)CN1CCC2CC1 (stereo not given) [CEVIMELINE]	> 10
CNC1=Nc2ccc(Cl)cc2C(c2ccccc2)=[N+]([O-])C1 [CHLORDIAZEPOXIDE]	> 30
COc1cc(N)c(Cl)cc1C(=O)NC1CCN(Cc2ccccc2)CC1 [CLEBOPRIDE]	> 30
Nc1ncn([C@H]2C[C@H](O)[C@@H](CO)O2)c(=O)n1 [DECITABINE]	> 30
CC(CCc1ccc(O)cc1)NCCc1ccc(O)c(O)c1 (stereo not given) [DOBUTAMINE]	> 30
CCOC(=O)c1cncn1[C@H](C)c1ccccc1 [ETOMIDATE]	> 10
C[C@]12CCC(=O)C(O)=C1CC[C@@H]1[C@@H]2CC[C@]2(C)C(=O)CC[C@@H]12 [FORMESTANE]	> 30
C[C@]12CC[C@@H]3c4ccc(O)cc4C[C@@H](CCCCCCCCC[S+]([O-])CCCC(F)(F)C(F)(F)F)[C@H]3[C@@H]1CC[C@@H]2O (stereo not given in full) [FULVESTRANT]	1.1
CC(C)NCC(O)c1ccc(O)c(O)c1 (stereo not given) [ISOPROTERENOL]	> 30
Oc1ccc2c(c1)CC[C@H](c1ccccc1)[C@@H]2c1ccc(OCCN2CCCC2)cc1 [LASOFOXIFENE]	9.3

Compound	AC50 [µM]
C[C@H](Cc1ccc(O)c(O)c1)[C@@H](C)Cc1ccc(O)c(O)c1 [MASOPROCOL]	8.7
OC1(c2ccc(Cl)cc2)c2ccccc2C2=NCCN21 (stereo not given) [MAZINDOL]	> 30
CC12CC3CC(C)(C1)CC(N)(C3)C2 [MEMANTINE]	> 30
CN(C)CCCNc1c2ccccc2nc2cccc([N+](=O)[O-])c12 [NITRACRINE]	> 30
C#C[C@]1(OC(C)=O)CC[C@H]2[C@@H]3CCC4=C/C(=N/O)CC[C@@H]4[C@H]3CC[C@@]21CC [NORGESTIMATE]	0.041
[H]/N=C(/N)N/C(=N/[H])NCCc1ccccc1 [PHENFORMIN]	> 30
CCCCC1C(=O)N(c2ccccc2)N(c2ccccc2)C1=O [PHENYLBUTAZONE]	> 10
CC(N)C(O)c1ccccc1 (stereo not given) [PHENYLPROPANOLAMINE]	> 30
Clc1ccc2c(N3CCN(CCCN4CCN(c5ccnc6cc(Cl)ccc56)CC4)CC3)ccnc2c1 [PIPERAQUINE]	> 30
CNCc1ccc(-c2[nH]c3cc(F)cc4c3c2CCNC4=O)cc1 [RUCAPARIB]	> 30
CC1(C)S[C@@H]2[C@H](NC(=O)[C@H](N)c3ccccc3)C(=O)N2[C@H]1C(=O)OCOC(=O)[C@@H]1N2C(=O)C[C@H]2S(=O)(=O)C1(C)C [SULTAMICILLIN]	> 30
CCC(=O)O[C@H]1CC[C@H]2[C@@H]3CCC4=CC(=O)CC[C@]4(C)[C@H]3CC[C@]12C [TESTOSTERONE PROPIONATE]	0.109
Clc1ccc(C(Cn2ccnc2)OCc2ccsc2Cl)c(Cl)c1 (stereo not given) [TIOCONAZOLE]	17.9
Cc1cccc(N2CC(CO)OC2=O)c1 (stereo not given) [TOLOXATONE]	> 30
CC(C)[C@H](N)C(=O)OCC(CO)OCn1cnc2c(=O)nc(N)[nH]c21 (stereo not given in full) [VALGANCICLOVIR]	> 30
CCC(C)C(CC)C(N)=O (stereo not given) [VALNOCTAMIDE]	> 30
CCCC(CCC)C(N)=O [VALPROMIDE]	> 30
